Measured values as given in patent US9174991B2, “Crystalline form of pemetrexed disodium” (Azad Pharmaceutical Ingredients AG, priority 2009, dated 2015).
Where a name gives a salt, the structure may show the parent alone. Read-outs that look alike come from different tables or passages of the source.

Key:
[1] = 70° C., 5 mbar; for change in HPLC-purity upon vacuum drying (in words): up to 9 d
Description: (§1) To investigate the stability of the different forms of Pemetrexed Disodium a stability test concerning storage at different relative humidity, storage in the presence of light and stability under drying conditions was carried out.
Four samples were stored at 70° 5 mbar in laboratory vacuum oven. IPC were taken after 2 d, 9 d
(§2) HPLC analysis was done on an Agilent 1100 system equipped with DAD detector using a Zorbax SB-Phenyl column (150×4.6 mm, 3 μm). Measurements were done at 230 nm wavelengths at 25° C. using a flow of 1.0 mL/min and 8 min post-run time. […] Sample preparation: 10 mg sample in 25 mL water:ACN=1:1, 5 uL injection.

[2] = starting material, before storage
Description: HPLC analysis was done on an Agilent 1100 system equipped with DAD detector using a Zorbax SB-Phenyl column (150×4.6 mm, 3 μm). Measurements were done at 230 nm wavelengths at 25° C. using a flow of 1.0 mL/min and 8 min post-run time. As mobile phase water containing 0.03% TFA and acetonitrile containing 0.025% TFA were used, solvents were HPLC grade. Sample preparation: 10 mg sample in 25 mL water:ACN=1:1, 5 uL injection. Retention time Pemetrexed Disodium: 10.3 min.
PXRD: Routine PXRD measurements were carried out on a Bruker AXS D8Advance diffractometer equipped with CuKα source with CuKβ filter and a VANTEC detector (Ser. No.: 202964). Measurement parameters: 3° 2theta to 39.9° 2theta, step time: 2s, step size: 0.022°, T=25° C., X-ray generator: 35 kV/40 mA.

[3] = for H2O (KFT) / HPLC-purity (10.5 min) / PXRD / HPLC-purity: dark, air
[4] = for change in HPLC purity in the presence of light (in words) / change in color in the presence of light (in words): text says after 16 d
Description: as §1
The samples were stored in double PE plastic bags and exposed to daylight IT=20° C. to 25° C. IPCs were taken after 15 d.
as §2

[5] = 5% to 12% relative humidity, 2 d, measured 11.7% (Form A 5.8%), 23° C.
[6] = 5% to 12% relative humidity, 5 d, measured 9.5% (Form A 5.3%), 24° C.
[7] = 5% to 12% relative humidity, 9 d, measured 9% (Form A 6%), 24° C.
[8] = 5% to 12% relative humidity, 16 d, measured 8.5% (Form A 5.8%), 24° C.
[9] = 27% to 33% relative humidity, 2 d, measured 29.8% (Form A 28%), 23° C.
[10] = 27% to 33% relative humidity, 5 d, measured 29% (Form A 27%), 24° C.
[11] = 27% to 33% relative humidity, 9 d, measured 31% (Form A 30%), 24° C.
[12] = 27% to 33% relative humidity, 16 d, measured 30.4% (Form A 28.7%), 24° C.
[13] = 39% to 50% relative humidity, 2 d, measured 41.1% (Form A 39%), 23° C.
[14] = 39% to 50% relative humidity, 5 d, measured 42.8% (Form A 38.6%), 24° C.
[15] = 39% to 50% relative humidity, 9 d, measured 48% (Form A 47%), 24° C.
[16] = 39% to 50% relative humidity, 16 d, measured 47.3% (Form A 46.4%), 24° C.
[17] = 60% to 70% relative humidity, 2 d, measured 61%, 22° C. (Form A 54%, 23° C)
[18] = 60% to 70% relative humidity, 5 d, measured 63% (Form A 57%), 24° C.
[19] = 60% to 70% relative humidity, 9 d, measured 69% (Form A 68%), 24° C.
[20] = 60% to 70% relative humidity, 16 d, measured 66.9% (Form A 67.2%), 24° C.
[21] = double PE plastic bags, daylight, 20° C. to 25° C., 15 d
[22] = daylight, listed as Pemetrexed Disodium Form A

SMILES: Nc1nc(O)c2c(CCc3ccc(C(=O)N[C@@H](CCC(=O)O)C(=O)O)cc3)c[nH]c2n1 [2.5 hydrate, disodium N-[4-[2-(2-amino-4,7-dihydro-4-oxo-3H-pyrrolo[2,3-d]-pyrimidin-5-yl)ethyl]benzoyl]-L-glutamic acid salt]
- HPLC-purity (10.5 min) ([1]; 2 d): 99.88%
- PXRD ([1]; 2 d): 2.5 hydrate
- HPLC-purity (10.5 min) ([1]; 9 d): 99.80%
- H2O (KFT) ([1]; 9 d, listed as Pemetrexed Disodium 2.5 hydrate): 7.9%
- change in HPLC-purity upon vacuum drying (in words) [1]: no significant change
- HPLC-purity (10.5 min) [2]: 99.86%
- PXRD [2]: 2.5 hydrate
- change in water content (in words) ([3]; 5% to 12% rel. humidity (for Form A and Form IV: 7% to 12%), up to 16 d, listed as Pemetrexed Disodium 2.5 hydrate): no significant change
- change in HPLC-purity (in words) ([3]; 5% to 12% rel. humidity (text for Form A: 7% to 12%), up to 16 d, listed as Pemetrexed Disodium 2.5 hydrate): no significant change
- H2O (KFT) [3, 5]: 8.9%
- HPLC-purity (10.5 min) [3, 5]: 99.74%
- PXRD [3, 5]: 2.5 hydrate
- HPLC-purity (10.5 min) [3, 6]: 99.82%
- PXRD [3, 6]: 2.5 hydrate
- HPLC-purity (10.5 min) [3, 7]: 99.90%
- PXRD [3, 7]: 2.5 hydrate
- HPLC-purity [3, 8]: 99.80%
- PXRD [3, 8]: 2.5 hydrate
- change in water content (in words) ([3]; 27% to 33% rel. humidity, up to 16 d, listed as Pemetrexed Disodium 2.5 hydrate): slight increase
- HPLC-purity [3, 9]: 99.82%
- PXRD [3, 9]: 2.5 hydrate
- HPLC-purity [3, 10]: 99.91%
- PXRD [3, 10]: 2.5 hydrate
- HPLC-purity [3, 11]: 99.84%
- PXRD ([3]; 27% to 33% relative humidity, 9 d, measured 31% (Form A 30%), 24° C., listed as Pemetrexed Disodium 2.5 hydrate): traces of Pemetrexed Disodium Heptahydrate
- HPLC-purity [3, 12]: 99.64%
- HPLC-purity [3, 13]: 99.83%
- PXRD ([3]; 39% to 50% relative humidity, 2 d, measured 41.1% (Form A 39%), 23° C., listed as Pemetrexed Disodium 2.5 hydrate): formation of Pemetrexed Disodium Heptahydrate
- HPLC-purity [3, 14]: 99.62%
- PXRD [3, 14]: Heptahydrate
- PXRD ([3]; 39% to 50% relative humidity, 5 d, measured 42.8% (Form A 38.6%), 24° C., listed as Pemetrexed Disodium 2.5 hydrate): transformation seems to be complete
- HPLC-purity [3, 15]: 99.74%
- PXRD [3, 15]: Heptahydrate
- HPLC-purity [3, 16]: 99.86%
- PXRD [3, 16]: Heptahydrate
- change in water content (in words) ([3]; 40% to 50% rel. humidity, up to 16 d, listed as Pemetrexed Disodium 2.5 hydrate): increase
- HPLC-purity [3, 17]: 99.73%
- PXRD [3, 17]: Heptahydrate
- PXRD ([3]; 60% to 70% relative humidity, 2 d, measured 61%, 22° C. (Form A 54%, 23° C), listed as Pemetrexed Disodium 2.5 hydrate): transformation to Pemetrexed Disodium Heptahydrate is complete
- HPLC-purity [3, 18]: 99.86%
- PXRD [3, 18]: Heptahydrate
- HPLC-purity [3, 19]: 99.84%
- PXRD [3, 19]: Heptahydrate
- HPLC-purity [3, 20]: 99.83%
- PXRD [3, 20]: Heptahydrate
- change in HPLC purity in any of the samples (in words) ([3]; all relative humidities tested (5% to 70%), up to 16 d): No significant change
- HPLC-purity ([4]; daylight study, Start): 99.73%
- change in HPLC purity in the presence of light (in words) ([4]; daylight): do not show significant changes
- change in color in the presence of light (in words) ([4]; daylight): do not show significant changes
- HPLC-purity [4, 21]: 99.74%

SMILES: Nc1nc(O)c2c(CCc3ccc(C(=O)N[C@@H](CCC(=O)O)C(=O)O)cc3)c[nH]c2n1 [Form A, disodium N-[4-[2-(2-amino-4,7-dihydro-4-oxo-3H-pyrrolo[2,3-d]-pyrimidin-5-yl)ethyl]benzoyl]-L-glutamic acid salt]
- HPLC-purity (10.5 min) ([1]; 2 d): 99.67%
- PXRD ([1]; 2 d): Form A
- Aspect ([1]; 9 d): beige
- HPLC-purity (10.5 min) ([1]; 9 d): 99.41%
- change in HPLC-purity upon vacuum drying (in words) ([1]; listed as Pemetrexed Disodium Form A): significant decrease
- HPLC-purity (10.5 min) [2]: 99.59%
- PXRD [2]: Form A
- change in water content (in words) ([3]; 5% to 12% rel. humidity (for Form A and Form IV: 7% to 12%), up to 16 d, listed as Pemetrexed Disodium Form A): does not show a significant change
- change in HPLC-purity (in words) ([3]; 5% to 12% rel. humidity (text for Form A: 7% to 12%), up to 16 d, listed as Pemetrexed Disodium Form A): does not show a significant change
- H2O (KFT) [3, 5]: 3.5%
- HPLC-purity (10.5 min) [3, 5]: 99.59%
- PXRD [3, 5]: Form A
- HPLC-purity (10.5 min) [3, 6]: 99.33%
- PXRD [3, 6]: Form A
- HPLC-purity (10.5 min) [3, 7]: 99.58%
- PXRD [3, 7]: Form A
- HPLC-purity [3, 8]: 99.50%
- PXRD [3, 8]: Form A
- change in HPLC-purity (in words) ([3]; 27% to 33% rel. humidity, after 16 d): without visible change
- change in water content (in words) ([3]; 27% to 33% rel. humidity, up to 16 d, listed as Pemetrexed Disodium Form A): significant in increase
- HPLC-purity [3, 9]: 99.60%
- HPLC-purity [3, 10]: 99.43%
- PXRD [3, 10]: Form A
- HPLC-purity [3, 11]: 99.57%
- PXRD [3, 11]: Form A
- HPLC-purity [3, 12]: 99.69%
- PXRD [3, 12]: Form A
- HPLC-purity [3, 13]: 99.68%
- PXRD [3, 13]: Form A
- HPLC-purity [3, 14]: 99.64%
- PXRD [3, 14]: Form A
- HPLC-purity [3, 15]: 99.62%
- PXRD [3, 15]: Form A
- HPLC-purity [3, 16]: 99.70%
- PXRD [3, 16]: Form A
- change in HPLC-purity (in words) ([3]; 40% to 50% rel. humidity, after 16 d): without visible change
- change in water content (in words) ([3]; 40% to 50% rel. humidity, up to 16 d, listed as Pemetrexed Disodium Form A): significant in increase
- uptake of water ([3]; 60% to 70% rel. humidity): 21%
- change in HPLC-purity (in words) ([3]; 60% to 70% rel. humidity, after 9 d): without significant change
- HPLC-purity [3, 17]: 99.71%
- PXRD [3, 17]: Form A
- HPLC-purity [3, 18]: 99.51%
- PXRD [3, 18]: Form A
- HPLC-purity [3, 19]: 99.71%
- PXRD [3, 19]: Heptahydrate
- PXRD ([3]; 60% to 70% relative humidity, 9 d, measured 69% (Form A 68%), 24° C., listed as Pemetrexed Disodium Form A): complete transformation to Pemetrexed Disodium Heptahydrate
- HPLC-purity [3, 20]: 99.72%
- PXRD [3, 20]: Heptahydrate
- HPLC-purity ([4]; daylight study, Start): 99.71%
- change in HPLC purity in the presence of light (in words) [4, 22]: a lot of decomposition products
- change in color in the presence of light (in words) [4, 22]: significant formation of color
- Aspect [4, 21]: beige
- H2O (KFT) [4, 21]: 2.44%
- HPLC-purity [4, 21]: 95.83%
